From patent US20020177180A1, “pH-indicator based assay for selective enzymes” (ThermoGen, Inc., priority 1998, published 2002)

Key:
Assay in all cases: Initial screening of ThermoGen esterases toward esters 1-31 (pH indicator), specific activity
Assay type in all cases: biochemical
Settings in all cases: 1 mM substrate, pH 7.2, 7 vol % acetonitrile, 25° C.
[1] = tested on: esterase E011
Procedure: (§1) Initial screening measures the initial rate of hydrolysis of different esters. The rate of reaction was measured by monitoring the release of protons using a pH indicator, 4-nitrophenol. In this assay, the yellow color of the phenoxide disappears as the reaction proceeds. The amount of ester hydrolyzed can be measured quantitatively, as is known in the art.

[2] = tested on: esterase E012
Procedure: as §1
(§2) To survey the substrate selectivity of the ThermoGen esterases, the ability of the enzymes to hydrolyze thirty-one different commercially-available esters, Scheme 1 (FIG. 9, Table 6).

[3] = tested on: esterase E014
Procedure: as §1, §2

[4] = tested on: esterase E015
Procedure: as §1, §2

[5] = tested on: esterase E006
Procedure: as §1, §2

[6] = tested on: esterase E020
Procedure: as §1, §2

[7] = tested on: esterase E016
Procedure: as §1, §2

| Structure (SMILES) | Specific activity, esterase E011 [1] | Specific activity, esterase E012 [2] | Specific activity, esterase E014 [3] | Specific activity, esterase E015 [4] | Specific activity, esterase E006 [5] | Specific activity, esterase E020 [6] | Specific activity, esterase E016 [7] |
| --- | --- | --- | --- | --- | --- | --- | --- |
| CC(C(=O)Oc1ccc([N+](=O)[O-])cc1)c1ccccc1 (racemic) [Substrate 1, (±)-4-nitrophenyl-2-phenylpropanoate, reference compound] | 5.1 mmol ester hydrolyzed/min/mg protein | 3.1 mmol ester hydrolyzed/min/mg protein | 1.2 mmol ester hydrolyzed/min/mg protein | 89 mmol ester hydrolyzed/min/mg protein | 120 mmol ester hydrolyzed/min/mg protein | 110 mmol ester hydrolyzed/min/mg protein | 63 mmol ester hydrolyzed/min/mg protein |
| C=COC(=O)CCCCC [Substrate 4] | 680 mmol ester hydrolyzed/min/mg protein | 48 mmol ester hydrolyzed/min/mg protein | 540 mmol ester hydrolyzed/min/mg protein | 1100 mmol ester hydrolyzed/min/mg protein | 1700 mmol ester hydrolyzed/min/mg protein | 3000 mmol ester hydrolyzed/min/mg protein | 1300 mmol ester hydrolyzed/min/mg protein |
| CCCCCCCCCCCCCC(=O)Oc1ccc2nc3ccc(=O)cc-3oc2c1 [Substrate 6, Resorufin tetradecanoate, reference compound] | 280 mmol ester hydrolyzed/min/mg protein | 27 mmol ester hydrolyzed/min/mg protein | 170 mmol ester hydrolyzed/min/mg protein | 330 mmol ester hydrolyzed/min/mg protein | 0.55 mmol ester hydrolyzed/min/mg protein | 1200 mmol ester hydrolyzed/min/mg protein | 15 mmol ester hydrolyzed/min/mg protein |
| C=C(C)OC(C)=O [Substrate 27] | 45 mmol ester hydrolyzed/min/mg protein | 2.4 mmol ester hydrolyzed/min/mg protein | 0.73 mmol ester hydrolyzed/min/mg protein | 100 mmol ester hydrolyzed/min/mg protein | 69 mmol ester hydrolyzed/min/mg protein | 3.3 mmol ester hydrolyzed/min/mg protein | 49 mmol ester hydrolyzed/min/mg protein |
| CC(C)Cc1ccc(C(C)C(=O)Oc2ccc([N+](=O)[O-])cc2)cc1 (racemic) [Substrate 2, (±)-4-nitrophenyl 2-(4-isobutylphenyl)propanoate, reference compound] | 160 mmol ester hydrolyzed/min/mg protein | 11 mmol ester hydrolyzed/min/mg protein | 170 mmol ester hydrolyzed/min/mg protein | 350 mmol ester hydrolyzed/min/mg protein | 260 mmol ester hydrolyzed/min/mg protein | 370 mmol ester hydrolyzed/min/mg protein | 220 mmol ester hydrolyzed/min/mg protein |
| COC(=O)CBr [Substrate 19] | 1.6 mmol ester hydrolyzed/min/mg protein | 2.4 mmol ester hydrolyzed/min/mg protein | 0.73 mmol ester hydrolyzed/min/mg protein | 2.6 mmol ester hydrolyzed/min/mg protein | 1.9 mmol ester hydrolyzed/min/mg protein | 1.6 mmol ester hydrolyzed/min/mg protein | 7.6 mmol ester hydrolyzed/min/mg protein |
| COC(=O)Cc1ccccc1 [Substrate 22] | <0.1 mmol ester hydrolyzed/min/mg protein | <2 mmol ester hydrolyzed/min/mg protein | <0.1 mmol ester hydrolyzed/min/mg protein | 0.14 mmol ester hydrolyzed/min/mg protein | 0.16 mmol ester hydrolyzed/min/mg protein | 0.28 mmol ester hydrolyzed/min/mg protein | <2 mmol ester hydrolyzed/min/mg protein |
| NC(Cc1ccccc1)C(=O)Oc1ccc([N+](=O)[O-])cc1.O=C(O)C(F)(F)F (racemic) [Substrate 3, D,L-phenylalanine-4-nitrophenol ester TFA salt, reference compound] | 220 mmol ester hydrolyzed/min/mg protein | 37 mmol ester hydrolyzed/min/mg protein | 180 mmol ester hydrolyzed/min/mg protein | 280 mmol ester hydrolyzed/min/mg protein | 410 mmol ester hydrolyzed/min/mg protein | 550 mmol ester hydrolyzed/min/mg protein | 230 mmol ester hydrolyzed/min/mg protein |
| CCCOC(C)=O [Substrate 24] | 0.25 mmol ester hydrolyzed/min/mg protein | 2.8 mmol ester hydrolyzed/min/mg protein | <0.1 mmol ester hydrolyzed/min/mg protein | 0.26 mmol ester hydrolyzed/min/mg protein | 0.31 mmol ester hydrolyzed/min/mg protein | 0.85 mmol ester hydrolyzed/min/mg protein | <2 mmol ester hydrolyzed/min/mg protein |
| C=COC(=O)CCCCCCCCCCCCC [Substrate 7] | 0.45 mmol ester hydrolyzed/min/mg protein | 7.6 mmol ester hydrolyzed/min/mg protein | 0.81 mmol ester hydrolyzed/min/mg protein | 3.0 mmol ester hydrolyzed/min/mg protein | 0.61 mmol ester hydrolyzed/min/mg protein | 1.0 mmol ester hydrolyzed/min/mg protein | 21 mmol ester hydrolyzed/min/mg protein |
| COC(=O)c1ccc(CO)cc1 [Substrate 23] | <0.1 mmol ester hydrolyzed/min/mg protein | <2 mmol ester hydrolyzed/min/mg protein | <0.1 mmol ester hydrolyzed/min/mg protein | 0.13 mmol ester hydrolyzed/min/mg protein | 0.27 mmol ester hydrolyzed/min/mg protein | 0.47 mmol ester hydrolyzed/min/mg protein | <2 mmol ester hydrolyzed/min/mg protein |
| CCC(C)OC(C)=O (stereo not shown) [Substrate 28] | 0.19 mmol ester hydrolyzed/min/mg protein | <2 mmol ester hydrolyzed/min/mg protein | <0.1 mmol ester hydrolyzed/min/mg protein | 0.29 mmol ester hydrolyzed/min/mg protein | 0.16 mmol ester hydrolyzed/min/mg protein | 2.1 mmol ester hydrolyzed/min/mg protein | <2 mmol ester hydrolyzed/min/mg protein |
| CCOC(=O)CBr [Substrate 18] | 5.5 mmol ester hydrolyzed/min/mg protein | 5.9 mmol ester hydrolyzed/min/mg protein | 37 mmol ester hydrolyzed/min/mg protein | 100 mmol ester hydrolyzed/min/mg protein | 4.8 mmol ester hydrolyzed/min/mg protein | 3.1 mmol ester hydrolyzed/min/mg protein | 16 mmol ester hydrolyzed/min/mg protein |
| CCCCCCCC(=O)OCC [Substrate 15] | 11 mmol ester hydrolyzed/min/mg protein | 19 mmol ester hydrolyzed/min/mg protein | 5.1 mmol ester hydrolyzed/min/mg protein | 120 mmol ester hydrolyzed/min/mg protein | 160 mmol ester hydrolyzed/min/mg protein | 2.6 mmol ester hydrolyzed/min/mg protein | 83 mmol ester hydrolyzed/min/mg protein |
| CCCC(=O)OCC1COC(C)(C)O1 (racemic) [Substrate 8, (±)-Solketal Butyrate, reference compound] | <0.1 mmol ester hydrolyzed/min/mg protein | <2 mmol ester hydrolyzed/min/mg protein | <0.1 mmol ester hydrolyzed/min/mg protein | 0.16 mmol ester hydrolyzed/min/mg protein | 0.13 mmol ester hydrolyzed/min/mg protein | <0.2 mmol ester hydrolyzed/min/mg protein | 2.2 mmol ester hydrolyzed/min/mg protein |
| CCCC(=O)OCC1CO1 (stereo not shown) [Substrate 30] | 1.2 mmol ester hydrolyzed/min/mg protein | 3.4 mmol ester hydrolyzed/min/mg protein | 0.53 mmol ester hydrolyzed/min/mg protein | 3.2 mmol ester hydrolyzed/min/mg protein | 3.5 mmol ester hydrolyzed/min/mg protein | 2.0 mmol ester hydrolyzed/min/mg protein | 14 mmol ester hydrolyzed/min/mg protein |
